Marks after values point to notes of the source that are not given here.
How the values were obtained:
Caco-2 cells = test: Permeability across Caco-2 monolayer (apical concentration by LC-MS); details: for % of Decrease in SL Concentration in the Apical Side (t = 4h) / SL conjugates with cysteine in the apical side after 4 h / Concentration of SL (Apical Side) t = 4 h / Concentration of SL (Apical Side) t = 0 h: Caco-2 monolayer; for % of Decrease in SL Concentration in the Apical Side (t = 4h): 10 µM apical, 4 h vs t = 0 h; for Concentration of SL (Apical Side) t = 4 h / Concentration of SL (Apical Side) t = 0 h: SL added at 10 µM apical; for Concentration of SL (Apical Side) t = 4 h: after 4 h; for Concentration of SL (Apical Side) t = 0 h: before experiment
Experimental: For intestinal permeability assessments of pure SLs, Caco-2 cells were seeded in 12 mm Transwell® inserts (polyester membrane, 0.4 μm pore size, Corning Costar Corp., NY, USA) at a density of 1.0 × 10^5 cell/cm^2. Cells were allowed to grow and differentiate to a confluent monolayer for 21 days postseeding with medium change three times per week. This mimics the apical and basolateral sides of the intestinal mucosa. Before the permeability assay, cells were washed with Hank’s balanced salt solution (HBSS) (Gibco, Life Technologies, Paisley, UK), and pure SLs in HBSS were added to the apical side for 4 h at the noncytotoxic concentration of 10 μM, while the basolateral well was replaced by HBSS. The fluorescent marker fluorescein (2.7 µM) was used as control, having been submitted to the same protocol as the SLs. Cells were submitted to an orbital shaking of 125 rpm (Ohaus, Shanghai, China), and samples from the basolateral side were collected after 15 min, 30 min, and then every hour until the end of the assay, and each time the retrieved volume was replaced by fresh HBSS to maintain sink conditions. After the 4 h assay, both apical and basolateral contents were collected, the cells were washed with PBS followed by culture medium, and culture medium was added to both compartments for 24 h to assess monolayer recovery. All samples were stored at −80 °C until LC-MS analysis.
Transepithelial electrical resistance (TEER) of all monolayers was monitored before and during experiments, and 24 h after the assay, to ensure their integrity using an EVOM™ voltmeter (WPI, Berlin, Germany). Before each experiment, TEER was measured and only monolayers with a TEER value higher than 500 Ω cm^2 were used. Experiments were done in triplicate.
Ultra High Performance Liquid Chromatography (UHPLC) separations were performed with a Dionex U3000 UHPLC coupled with a U3000 Photo Diode Array (PDA) and an LTQ-Orbitrap XL Mass Spectrometry (MS) system (Thermo-Fisher Ltd., Hemel Hempstead, UK). The MS and PDA systems were tuned and calibrated according to the manufacturers recommended procedures. The UHPLC was operated under Xcalibur and Chromeleon software (Thermo-Fisher Ltd. UK). A flow rate of 300 µL/min was applied, the column and guard (Synergi C18 Hydro-RP 80 Ä, 150 × 2.0 mm, 4 µm particle size; Phenomenex Ltd. U.K.) were maintained at a temperature of 30 °C. The solvent system compositions were, A: HPLC grade water (J.T. Baker, Scientific Chemical Supplies Ltd. UK), and solvent B: HPLC grade acetonitrile (J.T. Baker, Scientific Chemical Supplies Ltd. UK), both acidified with 0.1% MS grade formic acid (Ultima, Fisher Scientific, UK). A sample injection volume of 10 µL was employed in partial-loop mode. The gradient program was as follows: hold 2% B 0–2 min, 2–5% B 2–5 min, 5–45% B 5–25 min, 45–100% B 25–35 min, hold 100% B 35–38 min, 100–2% B 38–39 min, hold 2% B 39–44 min. Autosampler syringe and line washes were performed with 2:8 HPLC grade water: acetonitrile (J.T. Baker, Scientific Chemical Supplies Ltd., UK). The HPLC column eluent was first monitored by the U3000 PDA detector where spectra were collected in wavelength/absorbance mode from 200–600 nm. Additionally, three channel set points were employed, Channel A 210 nm, Channel B 260 nm, Channel C 320 nm. Spectra were collected with a filter bandwidth of 8 nm and wavelength step of 1 nm, the scan rate was 5 Hz.
The UHPLC eluent was next transferred to a Thermo LTQ-Orbitrap XL mass spectrometry system operated under Xcalibur (Thermo-Fisher Ltd. UK). For the first two minutes of analysis the UHPLC eluent was diverted to waste, from two to 39 min the eluent was directed to the MS detector, before being diverted back to waste between 39–44 min. Mass spectra were collected in centroid mode with a primary full scan event (m/z 100–1000) at a mass resolution of 30,000 (FWHM defined at m/z 400) within the Fourier Transform (FT) detector.

calcineurin-Crz1 pathway = test: β-Galactosidase CDRE-lacZ yeast reporter assay of Crz1 activation; assay type: cell-based, S. cerevisiae; details: Saccharomyces cerevisiae, MnCl2 3 mM activation, strain YAA5; for inhibition at 12.5 µM: read-out: Calcineurin-Crz1 Inhibition (%) ± SD, 12.5 µM
Experimental: Cultures at OD600= 0.5 ± 0.05 were diluted to OD600= 0.1 ± 0.01, transferred to 96-well microplate and challenged with the highest nontoxic concentration previously determined for each compound to investigate their putative inhibitory effect towards the calcineurin-responsive zinc finger (Crz1) activation. Measurements of β-galactosidase activity driven by the calcineurin-dependent response element (CDRE) regulated lacZ reporter gene allowed the quantitative assessment of the capacity of each compound to inhibit the activation of Crz1. FK506 (Cayman Chemicals, Ann Arbor, MI, USA) was used as a positive control at a final concentration of 12.5 μM. After 90 min of incubation with the respective compounds at 30 °C under orbital shaking, MnCl2 (Merck, Saint Louis, MO, USA) was added at a final concentration of 3 mM. After 90 min of incubation under the same conditions, OD600 of cultures were recorded, 10 μL of cell suspensions were transferred to a new 96-well plate followed by addition of 20 μL Y-PER cell lysis reagent (ThermoFisher Scientific), and the plates were incubated for 20 min at 37 °C without agitation. 240 μL of LacZ buffer (8.5 g/L Na2HPO4 (ROTH), 5.5 g/L NaH2PO4.H2O (Merck), 0.75 g/L KCl (Panreac), 0.246 g/L MgSO4.7H2O (Merck) containing […] o-nitrophenyl β-D-galactopyranoside (ONPG) (Sigma–Aldrich®—Poole, Dorset, UK) was added to each well, and plates were incubated at 30 °C for 2 h. The OD420 and OD550 were monitored using a Biotek Power Wave XS Microplate Spectrophotometer (Biotek® Instruments, Winooski, VT, USA). The results were expressed as Miller units (MU), applying the following equation, where V = volume of culture assayed in mL; t = reaction time in minutes: Miller unit = 1000 × (OD420 − 1.75 × OD550)/(t × V × OD600)(1)

yeast cells = test: Yeast cell viability (Cell Titer Blue); assay type: cell-based, S. cerevisiae; details: Cell Titer Blue assay
Experimental: Doses of SLs ranging from 12.5 μM to 100 μM for each compound were used in the yeast viability assays. Cultures obtained were diluted to a final OD600 = 0.025 ± 0.0025. The viability assays were performed in 96-wells microplates using 100 µL of diluted culture suspensions and 10 µL of Cell Titer Blue reagent (Promega, WI, USA) according to manufacturer’s instructions for 3 h at 30 °C. Fluorescence was measured in 30 min intervals at emission wavelength 580 nm using the Biotek Power Wave XS Microplate Spectrophotometer (Biotek® Instruments, Winooski, VT, USA).

[1] = Caco-2 apical side, conjugates estimated against calibration curves of parent SLs
[2] = LC-MS, apical side, t = 4 h, parent SLs added at 10 μM

Row | Structure (SMILES) | % of Decrease in SL Concentration in the Apical Side (t = 4h) (Caco-2 cells) | SL conjugates with cysteine in the apical side after 4 h (Caco-2 cells; LC-MS) | Concentration of SL (Apical Side) t = 4 h (Caco-2 cells) | Concentration of SL (Apical Side) t = 0 h (Caco-2 cells) | inhibition at 12.5 µM (calcineurin-Crz1 pathway) | Apical Concentration t = 4 h (µM Equivalents to Parent SL) (Caco-2 cells; [1]) | Peak Area (Average a.u.) (Caco-2 cells; [2]) | Apical Concentration t = 4 h (µM Equivalents to Parent SL) (Caco-2 cells; Caco-2) | further results
1 | CC1=C2C(=O)C=C(CO)C2C2OC(=O)C(C)C2C(OC(=O)Cc2ccc(O)cc2)C1 (stereo not drawn) [11β,13-dihydrolactucopicrin] | 29.9 * % | not detected | 4.9 ± 0.9 µM | 7.0 ± 1.2 µM | 26 ± 11% | – | – | – | –
2 | C/C1=C\[C@H]2OC(=O)C(CSC[C@H](N)C(=O)O)[C@@H]2CC/C(C)=C/CC1 (stereo partly drawn) [Costunolide-Cys] | – | – | – | – | – | 95 ± 8.4 µM Equivalents to Parent SL | 3.1 × 10^8 a.u. | – | –
3 | C=C1C(=O)O[C@@H]2/C=C(\C)CC/C=C(\C)CC[C@@H]12 [Costunolide] | 100 ** % | detected | <LOD | 13.1 ± 1.8 µM | – | <LOD | – | – | Concentration of SL (Apical Side) t = 4 h (Caco-2 cells; listed as costunolide): LOQ; inhibition at 6.25 µM (calcineurin-Crz1 pathway; read-out: Calcineurin-Crz1 Inhibition (%) ± SD, 6.25 µM): 18 ± 9%; Highest nontoxic concentration in yeast (yeast cells): 6.25 µM
4 | C=CC[C@@H]1/C=C(\C)C[C@H](C)C[C@H](OC)[C@H]2O[C@@](O)(C(=O)C(=O)N3CCCC[C@H]3C(=O)O[C@H](/C(C)=C/[C@@H]3CC[C@@H](O)[C@H](OC)C3)[C@H](C)[C@@H](O)CC1=O)[C@H](C)C[C@@H]2OC [FK506, reference compound] | – | – | – | – | 67 ± 13% | – | – | – | –
5 | C=C1C(=O)O[C@@H]2[C@H]3C(CO)=CC(=O)C3=C(C)C[C@H](O)[C@@H]12 [Lactucin, lactucin] | 28.8 *** % | detected | 5.9 ± 0.5 µM | 8.3 ± 0.7 µM | 20 ± 14% | 5.9 ± 0.5 µM Equivalents to Parent SL | 6.8 × 10^7 a.u. | – | % of Decrease in SL Concentration in the Apical Side (t = 4h) (Caco-2 cells; listed as lactucin): ≈ 30%
6 | CC1=C2C(=O)C=C(CO)C2C2OC(=O)C(CSCC(N)C(=O)O)C2C(O)C1 (stereo not drawn) [Lactucin-Cys] | – | – | – | – | – | – | – | 2.9 ± 3.6 µM Equivalents to Parent SL | –
7 | C=C1C(=O)O[C@@H]2[C@H]3C(CO)=CC(=O)C3=C(C)C[C@H](OC(=O)Cc3ccc(O)cc3)[C@@H]12 [Lactucopicrin, lactucopicrin] | 100 ** % | detected | <LOQ | 12.4 ± 1.3 µM | 18 ± 9% | <LOQ | 1.2 × 10^6 a.u. | – | Concentration of SL (Apical Side) t = 4 h (Caco-2 cells; listed as lactucopicrin): LOQ
8 | CC1=C2C(=O)C=C(CO)C2C2OC(=O)C(CSCC(N)C(=O)O)C2C(OC(=O)Cc2ccc(O)cc2)C1 (stereo not drawn) [Lactucopicrin-Cys] | – | – | – | – | – | – | – | 17.8 ± 2.9 µM Equivalents to Parent SL | –
9 | C=C1C(=O)O[C@H]2[C@H]1CC/C(C)=C/CC[C@@]1(C)O[C@@H]21 [Parthenolide, parthenolide, reference compound] | 100 ** % | detected | <LOQ | 11.9 ± 2.0 µM | 20 ± 12% | <LOQ | – | – | Peak Area (Average a.u.) (Caco-2 cells; human, Caco-2, 4 h, 10 µM): 9.2 × 10^5 a.u.
10 | CC1=CCCC2(C)OC2C2OC(=O)C(CSCC(N)C(=O)O)C2CC1 (stereo not drawn) [Parthenolide-Cys] | – | – | – | – | – | – | – | 27 ± 5.9 µM Equivalents to Parent SL | –

From publication PMC7699524, “Assessing the Intestinal Permeability and Anti-Inflammatory Potential of Sesquiterpene Lactones from Chicory” (Nutrients, 2020)
